Assay results published in US7148250B2, “Indoles as NAALADase inhibitors” (Guilford Pharmaceuticals Inc., priority 2001, dated 2006).

Tested on: BB/W rats
Experiment: Retinal disorders in diabetic BB/W rats (BM thickness, E/P ratio)
Format: in vivo, rat
Settings: for BM THICKNESS ± SD (n = 3) / E/P RATIO (n = 8–10): diabetic BB/W rats
Procedure: Four (4) groups of rats received daily insulin injections to maintain their glucose levels at about 350 mg/dl. Starting at the onset of hyperglycemia, NAALADase inhibitor 2-(3-sulfanylpropyl)-pentanedioic acid was administered daily for 6 months to one group of BB/W rats at a dose of 10 mg/kg and to a second group of BB/W rats at a dose of 30 mg/kg. A third group of BB/W rats and a fourth group of non-diabetic rats received daily vehicle treatment (50 mM Hepes buffered saline).
After six (6) months of NAALADase inhibitor or vehicle treatment, the rats were sacrificed and their eyes were removed. From each rat, one eye was processed for elastase digest while the other eye was processed for transmission electron microscopy (TEM) and basement membrane (BM) thickness.
Retinal digests were prepared using elastase on retinas as described in Layer, N., Invest Ophthalmol Vis Sci (1993) 34:2097. Eyes were removed from recently killed BB/W rats (n=25) and age-matched […] controls (n=10). The retinas (n=35) were fixed at room temperature by immersing the whole eye (slit at limbus) in 4% (w/v) paraformaldehyde in 50 mmol/L Na—K phosphate buffer with 8% sucrose. The fixed retinas were rinsed in deionized water and were incubated for 3 minutes in a 37° C. agitating water bath in 40 units/mL elastase in Na—K phosphate buffer with 150 mmol/L NaCl and 5 mmol/L ethylenediamine tetraacetic acid (EDTA), pH 6.5. The tissues were washed overnight in 100 mmol/L Tris-HCL (pH 8.5) and then transferred to deionized water for removal of the loosened vitreous and digested neural elements by gentle agitation using the sides of closed forceps and the sides and ends of very fine brushes. After all loose tissues were removed, the retinas were incubated once more in fresh enzyme for 3 minutes and then subjected to a second overnight wash at room temperature in Tns-HCl buffer. On the third day, the retinas were again transferred to deionized water for additional removal of digested neural elements. The vascular network that was completely free of nonvascular elements was mounted flat by flotation in Ca^2+ and Mg^2+ free Dulbecco's PBS on siliconized slides (#S1308, Oncor, Gaithersburg, Md.). After air drying in a dust free environment, the mounts of the retinal microvasculature were stained using periodic acid Schiff reaction and hematoxylin counterstaining, as described in Luna, L., ed. Manual of Histologic Staining Methods of the Armed Forces Institute of Pathology (1968) McGraw-Hill, New York, N.Y. The preparations were then examined by light microscopy and photographed.
The stained and intact retinal whole mounts were coded and subsequent counting was done masked, as described in Cuthbertson, R., Invest Ophthalmol Vis Sci. (1986) 27:1659–1664).
Ten fields at ×100 magnification were counted for endothelial and pericyte cells using previously described morphologic criteria (see Kuwabara, T., Arch Ophthalmol. (1960) 64:904–911). In every sample, at least 200 cells were counted from the mid zone of the retina. Mean values for endothelial cell/pericyte (E/P) ratios were initially calculated in 3 retinas from each of the four (4) groups of rats.
Each eye was fixed in 4% glutaraldehyde and dissected free of sclera and choroids, then trimmed and postfixed in 1% osmium tetroxide. After dehydration and embedding, thin sections were stained with uranyl acetate and lead citrate. Initially, BM thickness of retinal capillaries from 3 non-diabetic rats receiving vehicle, 3 diabetic animals receiving 10 mg/kg 2-(3-sulfanylpropyl)-pentanedioic acid, and 3 diabetic rats receiving 30 mg/kg 2-(3-sulfanylpropyl)-pentanedioic acid were compared with 3 diabetic rats receiving a vehicle. At least 10 capillaries per eye from the inner nuclear and plexiform layers were photographed at a magnification of 10,000×. Exact magnification was determined for each set of negatives with a 28,800 line/inch calibration grid. Negatives were enlarged 3×. […]

[1] = 10 mg/kg daily for 6 months, 10 mg/kg
[2] = 10 mg/kg daily for 6 months, listed as NAALADASE INHIBITOR, 10 mg/kg
[3] = 30 mg/kg daily for 6 months, 30 mg/kg
[4] = 30 mg/kg daily for 6 months, listed as NAAALADASE INHIBITOR, 30 mg/kg
[5] = high dose (30 mg/kg), six months
[6] = low dose (10 mg/kg), six months

## O=C(O)CCC(CCCS)C(=O)O (stereo not drawn) [Compound B, 2-(3-sulfanylpropyl)-pentanedioic acid]
[1]
  BM THICKNESS ± SD (n = 3): 82.3±4.07 nm
  E/P RATIO (n = 8–10): 2.4±0.5
[2]
  BM THICKNESS ± SD (n = 3): 82.3 ± 4.07 nm
  E/P RATIO (n = 8–10): 2.4 ± 0.5
[3]
  BM THICKNESS ± SD (n = 3): 71.7±4.07 nm
  E/P RATIO (n = 8–10): 1.9±0.4
[4]
  BM THICKNESS ± SD (n = 3): 71.7 ± 4.07 nm
  E/P RATIO (n = 8–10): 1.9 ± 0.4
[5]
  reduction in BM thickness versus diabetic vehicle: 29.0%
  reduction of E/P ratios versus diabetic vehicle: 37%
[6]
  decrease in BM thickness versus diabetic vehicle: 18.5%
  reduction of E/P ratios versus diabetic vehicle: 20%
